Results reported in PubChem BioAssay AID1963426 (Molecular Pharmacology Branch, DTP, NCI, 2024).

Tested on: 186277-243-T-J2-PDC complex spheroid growth, % test/control
Test: Anticancer human tumor 186277-243-T-J2-PDC patient-derived colon adenocarcinoma cell line growth inhibition [Asc]
Conditions: for IC50: curve of first compound; for viability, T/C: stronger effect = lower value
In short: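 Stromal components (HUVEC and hMSC) are co-assembled with the cancer cells into multicellular spheroids. Drugs are then added singly or paired, at concentrations falling by half-log increments from a clinically achievable maximum, capped at 10 microM without known Cmax.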
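Also: spheroids exposed to agents for 7 days.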
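For viability, T/C in this document: 100% = DMSO vehicle control wells.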

Structure (SMILES): NC(=O)C(=Cn1cnc(-c2cc(C(F)(F)F)cc(C(F)(F)F)c2)n1)c1cncnc1 + Cc1c(S(C)(=O)=O)c(-c2cc(F)cc(N3CCN(c4ccc(NS(=O)(=O)c5ccc(NC(CCN6CCC(C(=O)OCCCP(=O)(O)O)CC6)CSc6ccccc6)c(S(=O)(=O)C(F)(F)F)c5)cc4)CC3)c2)c(-c2ccc(Cl)cc2)n1C(C)C
- IC50 (second compound 0.1 µM): 108 nM
- IC50 (second compound 0.316 µM): 84.2 nM
- IC50 (second compound 1 µM): 65.7 nM
- IC50 (second compound 3.16 µM): 56.8 nM
- IC50 (second compound 10 µM): 55.4 nM
- viability, T/C (second compound 0.1 µM, first compound 0.000949 µM): 109%
- viability, T/C (second compound 0.1 µM, first compound 0.003 µM): 99.3%
- viability, T/C (second compound 0.1 µM, first compound 0.00949 µM): 113%
- viability, T/C (second compound 0.1 µM, first compound 0.03 µM): 90.8%
- viability, T/C (second compound 0.1 µM, first compound 0.0949 µM): 56.2%
- viability, T/C (second compound 0.1 µM, first compound 0.3 µM): 6.16%
- viability, T/C (second compound 0.316 µM, first compound 0.000949 µM): 96.3%
- viability, T/C (second compound 0.316 µM, first compound 0.003 µM): 99%
- viability, T/C (second compound 0.316 µM, first compound 0.00949 µM): 89.5%
- viability, T/C (second compound 0.316 µM, first compound 0.03 µM): 94.9%
- viability, T/C (second compound 0.316 µM, first compound 0.0949 µM): 44.8%
- viability, T/C (second compound 0.316 µM, first compound 0.3 µM): 4.07%
- viability, T/C (second compound 1 µM, first compound 0.000949 µM): 96.8%
- viability, T/C (second compound 1 µM, first compound 0.003 µM): 101%
- viability, T/C (second compound 1 µM, first compound 0.00949 µM): 101%
- viability, T/C (second compound 1 µM, first compound 0.03 µM): 98.2%
- viability, T/C (second compound 1 µM, first compound 0.0949 µM): 27.4%
- viability, T/C (second compound 1 µM, first compound 0.3 µM): 1.75%
- viability, T/C (second compound 3.16 µM, first compound 0.000949 µM): 110%
- viability, T/C (second compound 3.16 µM, first compound 0.003 µM): 99.4%
- viability, T/C (second compound 3.16 µM, first compound 0.00949 µM): 101%
- viability, T/C (second compound 3.16 µM, first compound 0.03 µM): 95.8%
- viability, T/C (second compound 3.16 µM, first compound 0.0949 µM): 13.2%
- viability, T/C (second compound 3.16 µM, first compound 0.3 µM): 0.68%
- viability, T/C (second compound 10 µM, first compound 0.000949 µM): 92%
- viability, T/C (second compound 10 µM, first compound 0.003 µM): 92.4%
- viability, T/C (second compound 10 µM, first compound 0.00949 µM): 92.5%
- viability, T/C (second compound 10 µM, first compound 0.03 µM): 91.7%
- viability, T/C (second compound 10 µM, first compound 0.0949 µM): 13.4%
- viability, T/C (second compound 10 µM, first compound 0.3 µM): 0.55%

Structure (SMILES): NC1CCC(NC2CC2c2ccccc2)CC1 (stereo not given) + Cc1c(S(C)(=O)=O)c(-c2cc(F)cc(N3CCN(c4ccc(NS(=O)(=O)c5ccc(NC(CCN6CCC(C(=O)OCCCP(=O)(O)O)CC6)CSc6ccccc6)c(S(=O)(=O)C(F)(F)F)c5)cc4)CC3)c2)c(-c2ccc(Cl)cc2)n1C(C)C
- IC50 (second compound 0.1 µM): > 100 nM
- IC50 (second compound 0.316 µM): > 100 nM
- IC50 (second compound 1 µM): > 100 nM
- IC50 (second compound 3.16 µM): > 100 nM
- IC50 (second compound 10 µM): > 100 nM
- viability, T/C (second compound 0.1 µM, first compound 0.000316 µM): 102%
- viability, T/C (second compound 0.1 µM, first compound 0.001 µM): 102%
- viability, T/C (second compound 0.1 µM, first compound 0.00316 µM): 96.9%
- viability, T/C (second compound 0.1 µM, first compound 0.01 µM): 94.8%
- viability, T/C (second compound 0.1 µM, first compound 0.0316 µM): 94.4%
- viability, T/C (second compound 0.1 µM, first compound 0.1 µM): 91.3%
- viability, T/C (second compound 0.316 µM, first compound 0.000316 µM): 124%
- viability, T/C (second compound 0.316 µM, first compound 0.001 µM): 94.3%
- viability, T/C (second compound 0.316 µM, first compound 0.00316 µM): 111%
- viability, T/C (second compound 0.316 µM, first compound 0.01 µM): 104%
- viability, T/C (second compound 0.316 µM, first compound 0.0316 µM): 89.9%
- viability, T/C (second compound 0.316 µM, first compound 0.1 µM): 78.1%
- viability, T/C (second compound 1 µM, first compound 0.000316 µM): 99.8%
- viability, T/C (second compound 1 µM, first compound 0.001 µM): 103%
- viability, T/C (second compound 1 µM, first compound 0.00316 µM): 113%
- viability, T/C (second compound 1 µM, first compound 0.01 µM): 93%
- viability, T/C (second compound 1 µM, first compound 0.0316 µM): 96.7%
- viability, T/C (second compound 1 µM, first compound 0.1 µM): 89%
- viability, T/C (second compound 3.16 µM, first compound 0.000316 µM): 103%
- viability, T/C (second compound 3.16 µM, first compound 0.001 µM): 104%
- viability, T/C (second compound 3.16 µM, first compound 0.00316 µM): 100%
- viability, T/C (second compound 3.16 µM, first compound 0.01 µM): 92.1%
- viability, T/C (second compound 3.16 µM, first compound 0.0316 µM): 95.6%
- viability, T/C (second compound 3.16 µM, first compound 0.1 µM): 91.3%
- viability, T/C (second compound 10 µM, first compound 0.000316 µM): 98.3%
- viability, T/C (second compound 10 µM, first compound 0.001 µM): 101%
- viability, T/C (second compound 10 µM, first compound 0.00316 µM): 97.8%
- viability, T/C (second compound 10 µM, first compound 0.01 µM): 92.8%
- viability, T/C (second compound 10 µM, first compound 0.0316 µM): 97.8%
- viability, T/C (second compound 10 µM, first compound 0.1 µM): 98%
